Activity calls are given as the source filed them. The rule behind the calls is not given here.
Assays:
Peritoneal macrophage [1] = test: Induction of innate immune response in Leishmania donovani MHOM/IN/AG/83 infected BALB/c mouse peritoneal macrophage assessed as downregulation of IL-10 levels at 2.5 ug/ml after 24 hrs by sandwich ELISA; type: functional
Leishmania donovani [2] = test: Antileishmanial activity against Leishmania donovani MHOM/IN/AG/83 promastigotes after 48 hrs by MTT assay; type: functional, organism-based; details: MHOM/IN/AG/83, 48 h
Peritoneal macrophage [3] = test: Induction of innate immune response in Leishmania donovani MHOM/IN/AG/83 infected BALB/c mouse peritoneal macrophages assessed as upregulation of IL-12 levels at 2.5 ug/ml after 24 hrs by sandwich ELISA; type: functional
Mus musculus [4] = species on record: Mus musculus; test: Induction of innate immune response in splenocytes derived from compound treated BALB/c mouse infected with Leishmania donovani MHOM/IN/AG/83 assessed as reduction in arginase-1 activity using L-arginine by spectrometry relative to control; type: functional
[5] = Drug uptake in mouse RAW264.7 cells assessed as retention time at 10 ug/ml incubated for 3 hrs by HPLC method; type: ADME, cell-based; details: raw264.7, 3 h
[6] = Ratio of therapeutic index of test compound to Amphotericin B by measuring ratio of IC50 for BALB/c mouse peritoneal macrophages to IC50 for Leishmania donovani MHOM/IN/AG/83 amastigotes; type: toxicity
Mus musculus [7] = species on record: Mus musculus; test: Induction of innate immune response in splenocytes derived from compound treated BALB/c mouse infected with Leishmania donovani MHOM/IN/AG/83 assessed as upregulation of IL-12 protein expression by sandwich ELISA; type: functional, organism-based
Peritoneal macrophage [8] = test: Induction of innate immune response in Leishmania donovani MHOM/IN/AG/83 infected BALB/c mouse peritoneal macrophages assessed as increase in iNOS2 mRNA expression at 2.5 ug/ml incubated for 6 hrs by RT-PCR analysis relative to control; type: functional
Mus musculus [9] = species on record: Mus musculus; test: Induction of innate immune response in splenocytes derived from compound treated BALB/c mouse infected with Leishmania donovani MHOM/IN/AG/83 assessed as upregulation of IFNgamma mRNA expression levels by RT-PCR analysis; type: functional, organism-based
Mus musculus [10] = species on record: Mus musculus; test: Induction of innate immune response in splenocytes derived from compound treated BALB/c mouse infected with Leishmania donovani MHOM/IN/AG/83 assessed as increase in iNOS2 mRNA expression by RT-PCR analysis; type: functional
Mus musculus [11] = species on record: Mus musculus; test: Induction of innate immune response in splenocytes derived from compound treated BALB/c mouse infected with Leishmania donovani MHOM/IN/AG/83 assessed as downregulation of IL-10 mRNA expression by RT-PCR analysis; type: functional, organism-based
Leishmania donovani [12] = test: Antileishmanial activity against Leishmania donovani MHOM/IN/AG/83 amastigotes infected in BALB/c mouse peritoneal macrophages after 42 hrs by Giemsa staining-based microscopic analysis; type: functional, organism-based; details: MHOM/IN/AG/83, 42 h
Peritoneal macrophage [13] = test: Induction of innate immune response in Leishmania donovani MHOM/IN/AG/83 infected BALB/c mouse peritoneal macrophages assessed as upregulation of IL-12 mRNA expression at 2.5 ug/ml after 6 hrs by RT-PCR analysis; type: functional, cell-based
Peritoneal macrophage [14] = test: Induction of NO generation in Leishmania donovani MHOM/IN/AG/83 infected BALB/c mouse peritoneal macrophages assessed as increase in nitrite levels at 5 ug/ml after 48 hrs by Griess assay relative to untreated control; type: functional
Leishmania donovani [15] = test: (§1) Antileishmanial activity against Leishmania donovani MHOM/IN/AG/83 promastigotes infected in BALB/c mouse assessed as reduction of parasite burden in liver at 10 mg/kg, iv administered starting 2 weeks of post infection with five days interval between each treatment and measured after 28 days of treatment by Giemsa staining-based assay; type: functional; set-up: scale not given: the % may be the effect or the level left
Mus musculus [16] = species on record: Mus musculus; test: Induction of innate immune response in splenocytes derived from compound treated BALB/c mouse infected with Leishmania donovani MHOM/IN/AG/83 by Griess assay; type: functional
Leishmania donovani [17] = test: as §1, with “spleen” for “liver”; type: functional; set-up: scale not given: the % may be the effect or the level left
RAW264.7 = test: Cytotoxicity against mouse RAW264.7 cells after 48 hrs by MTT assay; type: cell-based; details: RAW264.7, 48 h
[18] = Ratio of therapeutic index of test compound to Miltefosine by measuring ratio of IC50 for BALB/c mouse peritoneal macrophages to IC50 for Leishmania donovani MHOM/IN/AG/83 amastigotes; type: toxicity
[19] = Therapeutic index, ratio of IC50 for mouse RAW264.7 cells to IC50 for Leishmania donovani MHOM/IN/AG/83 promastigotes; type: toxicity; details: read-out: Ratio IC50
Peritoneal macrophage [20] = test: Induction of innate immune response in Leishmania donovani MHOM/IN/AG/83 infected BALB/c mouse peritoneal macrophages assessed as downregulation of IL-10 mRNA expression at 2.5 ug/ml after 6 hrs by RT-PCR analysis; type: functional, cell-based
Peritoneal macrophage [21] = test: Induction of NO generation in Leishmania donovani MHOM/IN/AG/83 infected BALB/c mouse peritoneal macrophages assessed as nitrite levels after 48 hrs by Griess assay relative to untreated control; type: functional
Peritoneal macrophage [22] = test: Cytotoxicity against BALB/c mouse peritoneal macrophages after 48 hrs by MTT assay; type: cell-based
Leishmania donovani [23] = test: as §1, with “spleen” for “liver”, “25” for “10”; type: functional; set-up: scale not given: the % may be the effect or the level left
Leishmania donovani [24] = test: as §1, with “25” for “10”; type: functional; set-up: scale not given: the % may be the effect or the level left
Mus musculus [25] = species on record: Mus musculus; test: Induction of innate immune response in splenocytes derived from compound treated BALB/c mouse infected with Leishmania donovani MHOM/IN/AG/83 assessed as upregulation of IFNgamma protein expression levels by sandwich ELISA; type: functional, organism-based
[26] = Drug uptake in mouse RAW264.7 cells assessed as ratio of drug level (cell lysate)/(drug level (supernatant) + drug level (cell lysate) at 10 ug/ml incubated for 3 hrs by HPLC method; type: ADME, cell-based; details: raw264.7, 3 h
Mus musculus [27] = species on record: Mus musculus; test: Induction of innate immune response in splenocytes derived from compound treated BALB/c mouse infected with Leishmania donovani MHOM/IN/AG/83 assessed as upregulation of IL-12 mRNA expression by RT-PCR analysis; type: functional, organism-based
Peritoneal macrophage [28] = test: Induction of NO generation in Leishmania donovani MHOM/IN/AG/83 infected BALB/c mouse peritoneal macrophages assessed as increase in nitrite levels at 1 ug/ml after 48 hrs by Griess assay relative to untreated control; type: functional
Peritoneal macrophage [29] = test: Induction of NO generation in Leishmania donovani MHOM/IN/AG/83 infected BALB/c mouse peritoneal macrophages assessed as increase in nitrite levels at 2.5 ug/ml after 48 hrs by Griess assay relative to untreated control; type: functional
Mus musculus [30] = species on record: Mus musculus; test: Induction of innate immune response in splenocytes derived from compound treated BALB/c mouse infected with Leishmania donovani MHOM/IN/AG/83 assessed as downregulation of IL-10 protein expression by sandwich ELISA; type: functional, organism-based
Mus musculus [31] = species on record: Mus musculus; test: Induction of innate immune response in splenocytes derived from compound treated BALB/c mouse infected with Leishmania donovani MHOM/IN/AG/83 assessed as reduction in arginase-1 expression by RT-PCR analysis relative to untreated control; type: functional
[32] = Binding affinity to plasma membrane of mouse RAW264.7 cells at 10 uM using compound with fluorophoric moiety attached via carbamate linkage by fluorescence microscopy; type: ADME, cell-based; details: raw264.7, 10 µM
[33] = Therapeutic index, ratio of EC50 for BALB/c mouse peritoneal macrophages to EC50 for Leishmania donovani MHOM/IN/AG/83 amastigotes; type: toxicity; details: read-out: Ratio EC50
Peritoneal macrophage [34] = test: Induction of innate immune response in Leishmania donovani MHOM/IN/AG/83 infected BALB/c mouse peritoneal macrophages assessed as reduction in arginase 1 activity at 1 to 5 ug/ml incubated for 48 hrs using L-arginine and by spectrometry relative to control; type: functional

SMILES: C=CCc1ccc(OC(=O)CCCCCCCCCCCCCCCCC)c(OC)c1
- fold change (FC) (Peritoneal macrophage [1]): 3
- IC50 (Leishmania donovani [2]): 20.1 µM
- fold change (FC) (Peritoneal macrophage [3]): 5
- fold change (FC) (Mus musculus [4]): 4
- Retention_time [5]: 3.173 min
- Ratio [6]: 10 to 13
- Activity (Mus musculus [7]): Active
- fold change (FC) (Peritoneal macrophage [8]): 8
- Activity (Mus musculus [9]): Active
- fold change (FC) (Mus musculus [10]): 8
- Activity (Mus musculus [11]): Active
- EC50 (Leishmania donovani [12]): 4.25 µM
- Activity (Peritoneal macrophage [13]): Active
- fold change (FC) (Peritoneal macrophage [14]): 8
- Activity (Leishmania donovani [15]): 81%
- fold change (FC) (Mus musculus [16]): 8
- Activity (Leishmania donovani [17]): 72%
- IC50 (RAW264.7): 305 µM
- Ratio [18]: 10 to 13
- selectivity ratio [19]: 15.2
- Activity (Peritoneal macrophage [20]): Active
- Activity (Peritoneal macrophage [21]): Dose-dependent effect
- Activity (Peritoneal macrophage [21]; record 2): 38.83 µM
- EC50 (Peritoneal macrophage [22]): 346 µM
- Activity (Leishmania donovani [23]): 87%
- Activity (Leishmania donovani [24]): 92%
- Activity (Mus musculus [25]): Active
- Ratio [26]: 0.62
- Activity (Mus musculus [27]): Active
- fold change (FC) (Peritoneal macrophage [28]): 3
- fold change (FC) (Peritoneal macrophage [29]): 7
- Activity (Mus musculus [30]): Active
- fold change (FC) (Mus musculus [31]): 4
- Activity [32]: Active
- selectivity ratio [33]: 82.2
- fold change (FC) (Peritoneal macrophage [34]): 4

SMILES: C=CCc1ccc(O)c(OC)c1 [EUGENOL]
- IC50 (Leishmania donovani [2]): 442 µM
- Retention_time [5]: 3.133 min
- EC50 (Leishmania donovani [12]): 173 µM
- IC50 (RAW264.7): 527 µM
- selectivity ratio [19]: 1.19
- Activity (Peritoneal macrophage [21]): Dose-dependent effect
- Activity (Peritoneal macrophage [21]; record 2): 7.45 µM
- EC50 (Peritoneal macrophage [22]): 476 µM
- Ratio [26]: 0.21
- selectivity ratio [33]: 2.75

SMILES: C=CCc1ccc(OC(=O)COc2ccccc2)c(OC)c1
- IC50 (Leishmania donovani [2]): 28.9 µM
- Retention_time [5]: 3.867 min
- EC50 (Leishmania donovani [12]): 7.17 µM
- IC50 (RAW264.7): 396 µM
- selectivity ratio [19]: 13.7
- Activity (Peritoneal macrophage [21]): Dose-dependent effect
- Activity (Peritoneal macrophage [21]; record 2): 39.02 µM
- EC50 (Peritoneal macrophage [22]): 391 µM
- Ratio [26]: 0.73
- selectivity ratio [33]: 55.1

SMILES: C=CCc1ccc(OC(=O)c2cccc([N+](=O)[O-])c2)c(OC)c1
- IC50 (Leishmania donovani [2]): 76.9 µM
- EC50 (Leishmania donovani [12]): 26.2 µM
- IC50 (RAW264.7): 255 µM
- selectivity ratio [19]: 3.33
- Activity (Peritoneal macrophage [21]): Dose-dependent effect
- Activity (Peritoneal macrophage [21]; record 2): 24.58 µM
- EC50 (Peritoneal macrophage [22]): 218 µM
- selectivity ratio [33]: 8.36

SMILES: C=CCc1ccc(OC(=O)C2CCNCC2)c(OC)c1
- IC50 (Leishmania donovani [2]): 89 µM
- EC50 (Leishmania donovani [12]): 66.3 µM
- IC50 (RAW264.7): 261 µM
- selectivity ratio [19]: 2.96
- Activity (Peritoneal macrophage [21]): Dose-dependent effect
- Activity (Peritoneal macrophage [21]; record 2): 21.55 µM
- EC50 (Peritoneal macrophage [22]): 307 µM
- selectivity ratio [33]: 4.66

SMILES: C=CCc1ccc(OC(=O)CCCCCCCC)c(OC)c1
- IC50 (Leishmania donovani [2]): 93.6 µM
- EC50 (Leishmania donovani [12]): 52.9 µM
- IC50 (RAW264.7): 317 µM
- selectivity ratio [19]: 3.37
- Activity (Peritoneal macrophage [21]): Dose-dependent effect
- Activity (Peritoneal macrophage [21]; record 2): 27.14 µM
- EC50 (Peritoneal macrophage [22]): 343 µM
- selectivity ratio [33]: 6.52

SMILES: C=CCc1ccc(OCCCCCCCCCCCC)c(OC)c1
- IC50 (Leishmania donovani [2]): 52.5 µM
- EC50 (Leishmania donovani [12]): 26 µM
- IC50 (RAW264.7): 299 µM
- selectivity ratio [19]: 5.76
- Activity (Peritoneal macrophage [21]): Dose-dependent effect
- Activity (Peritoneal macrophage [21]; record 2): 28.12 µM
- EC50 (Peritoneal macrophage [22]): 292 µM
- selectivity ratio [33]: 11.4

From ChEMBL document CHEMBL4130392, “Eugenol derived immunomodulatory molecules against visceral leishmaniasis” (Eur J Med Chem, 2017)
